Laboratory results: patent publication US20240000074A1, “LOW DRIFT, RAINFASTNESS, HIGH SPREADING, HIGH UPTAKE AND ULV TANK MIX ADJUVANT FORMULATION” (BAYER AKTIENGESELLSCHAFT, priority 2020, published 2024)

Tested on: Apple leaf cuticles
Assay: Apple cuticle penetration test (SOFU, simulation of foliar uptake)
Assay type: in vitro ADME
Details: Spray volume 650 l/ha; no additives
Excerpt: The cuticle penetration test is a further developed and adapted version of the test method SOFU (simulation of foliar uptake) originally described by Schonherr and Baur (Schonherr, J., Baur, P. (1996), Effects of temperature, surfactants and other adjuvants on rates of uptake of organic compounds. In: The plant cuticle—an integrated functional approach, 134-155. Kerstiens, G. (ed.), BIOS Scientific publisher, Oxford); it is well suited for systematic and mechanistic studies on the effects of formulations, adjuvants and solvents on the penetration of agrochemicals.
Apple leaf cuticles were isolated from leaves taken from trees growing in an orchard as described by Schönherr and Riederer (Schönherr, J., Riederer, M. (1986), Plant cuticles sorb lipophilic compounds during enzymatic isolation. Plant Cell Environ. 9, 459-466). Only the astomatous cuticular membranes of the upper leaf surface lacking stomatal pores were obtained. Discs having diameters of 18 mm were punched out of the leaves and infiltrated with an enzymatic solution of pectinase and cellulase. […] After storage for about four weeks the permeability of the cuticles reaches a constant level and the cuticular membranes are ready for the use in the penetration test. […]
An autosampler took aliquots of the acceptor in regular intervals and the content of active ingredient is determined by HPLC (DAD or MS). […]

Structure (SMILES) | Penetration rate of spirotetramate After 48 hours [%] | Penetration rate of tebuconazole After 24 hours [%]
CCOC(=O)OC1=C(c2cc(C)ccc2C)C(=O)N[C@]12CC[C@@H](OC)CC2 [spirotetramate] | 0 | –
CC(C)(C)C(O)(CCc1ccc(Cl)cc1)Cn1cncn1 (centres unmarked) [tebuconazole] | – | 4
